# Earlier results, collected in patent US20020055536A1, “System and method for structure-based drug design that includes accurate prediction of binding free energy” (priority 1996, published 2002).
# Key:
# HIV-1 protease = target: T1, HIV-1 protease (Human immunodeficiency virus type 1 group M subtype B, UniProt P04585)
# T1 construct: The following HIV-1 protease ligands were tested by the method of the present invention
# [1] = target: purine nucleoside phosphorylase; conditions: for IC50: 1 mM phosphate, Ki or IC50 not distinguished; for Phosphate sensitivity: change of binding constant upon increase of phosphate to 50 mM
IC50 [1] [µM],SMILES,Ki (HIV-1 protease) [µM],Phosphate sensitivity [1]
,CC(O)c1cnc(C(Cc2ccccc2)CC(O)C(Cc2ccccc2)NC(=O)OC(C)(C)C)[nH]1 [B Boc Me(R)],13.3,
360,Nc1nc2c(ncn2[C@@H]2O[C@H](COP(=O)(O)OP(=O)(O)O)[C@@H](O)[C@H]2O)c(=O)[nH]1 [GDP],,low (those whose binding constant changes by a factor of 15 or less upon increase of the concentration of phosphate to 50 mM)
6.6,Nc1nc2c(ncn2COCCOP(=O)(O)O)c(=O)[nH]1 [acyclovirMP],,low (those whose binding constant changes by a factor of 15 or less upon increase of the concentration of phosphate to 50 mM)
,C=CC(C)(C)C(=O)c1cnc(C(Cc2ccccc2)CC(O)C(Cc2ccccc2)NC(=O)OC(C)(C)C)[nH]1 (centres unmarked) [A Boc CMe2CHCH2],0.27,
0.31,Nc1nc2c(ncn2COCCOP(=O)(O)OP(=O)(O)OP(=O)(O)O)c(=O)[nH]1 [acyclovirTP],,high (The highly sensitive molecules are affected in some instances by a factor of 140)
,CC(O)c1cnc(C(Cc2ccccc2)CC(O)C(Cc2ccccc2)NC(=O)OC(C)(C)C)[nH]1 [B Boc Me(S)],13.3,
32,Nc1nc2c(ncn2[C@H]2C[C@H](O)[C@@H](COP(=O)(O)OP(=O)(O)OP(=O)(O)O)O2)c(=O)[nH]1 [dGTP],,high (The highly sensitive molecules are affected in some instances by a factor of 140)
,CC(C)C(O)c1cnc(C(Cc2ccccc2)CC(O)C(Cc2ccccc2)NC(=O)OC(C)(C)C)[nH]1 [B Boc iPr(S)],2.7,
300,Nc1nc2c(ncn2[C@H]2C[C@H](O)[C@@H](COP(=O)(O)O)O2)c(=O)[nH]1 [dGMP],,low (those whose binding constant changes by a factor of 15 or less upon increase of the concentration of phosphate to 50 mM)
,CC(C)C(NC(=O)C(Cc1ccccc1)CC(O)C(Cc1ccccc1)NC(=O)OC(C)(C)C)c1nnc[nH]1 (centres unmarked) [D N],0.0042,
,CC(C)C(O)c1cnc(C(Cc2ccccc2)CC(O)C(Cc2ccccc2)NC(=O)OC(C)(C)C)[nH]1 [B Boc i-Pr(R)],2.7,
,Nc1nc(O)c2ncn(COCCOP(=O)(O)OP(=O)(O)O)c2n1 [acyclovirDP],,high (The highly sensitive molecules are affected in some instances by a factor of 140)
,CCC(=O)c1cnc(C(Cc2ccccc2)CC(O)C(Cc2ccccc2)NC(=O)OC(C)(C)C)[nH]1 (centres unmarked) [A Boc Et],0.092,
,CC(C)C(NC(=O)C(Cc1ccccc1)CC(O)C(Cc1ccccc1)NC(=O)OC(C)(C)C)c1ncc[nH]1 (centres unmarked) [D CH],0.018,
200,Nc1nc2c(ncn2COCCO)c(=O)[nH]1 [acyclovir],,low (those whose binding constant changes by a factor of 15 or less upon increase of the concentration of phosphate to 50 mM)
,CC(C)C(=O)c1cnc(C(Cc2ccccc2)CC(O)C(Cc2ccccc2)NC(=O)OC(C)(C)C)[nH]1 (centres unmarked) [A Boc i-Pr],0.083,
530,Nc1nc2c(ncn2[C@@H]2O[C@H](COP(=O)(O)O)[C@@H](O)[C@H]2O)c(=O)[nH]1 [GMP],,low (those whose binding constant changes by a factor of 15 or less upon increase of the concentration of phosphate to 50 mM)
,CC(=O)c1cnc(C(Cc2ccccc2)CC(O)C(Cc2ccccc2)NC(=O)OC(C)(C)C)[nH]1 (centres unmarked) [A Boc Me],0.37,
490,Nc1nc2c(ncn2[C@@H]2O[C@H](COP(=O)(O)OP(=O)(O)OP(=O)(O)O)[C@@H](O)[C@H]2O)c(=O)[nH]1 [GTP],,low (those whose binding constant changes by a factor of 15 or less upon increase of the concentration of phosphate to 50 mM)
,CC(C)(C)OC(=O)NC(Cc1ccccc1)C(O)CC(Cc1ccccc1)c1ncc(C=O)[nH]1 (centres unmarked) [A Boc H],3.5,
,CCCC(=O)c1cnc(C(Cc2ccccc2)CC(O)C(Cc2ccccc2)NC(=O)OC(C)(C)C)[nH]1 (centres unmarked) [A Boc n-Pr],0.15,
